Assays:
[1] = in vivo and in vitro, topical administration; cited from earlier work
[2] = transport of water-soluble material by association with nonionic vesicles

| Molecule | effect of phospholipid liposomes on penetration into the skin [1] | transport by association with nonionic vesicles [2] |
| --- | --- | --- |
| CC(=O)[C@H]1CC[C@H]2[C@@H]3CCC4=CC(=O)CC[C@]4(C)[C@H]3CC[C@]12C [progesterone] | do not improve penetration |  |
| carboxyfluoroscein |  | transported to a greater extent |
| C[C@]12CC[C@@H]3c4ccc(O)cc4CC[C@H]3[C@@H]1CC[C@@H]2O [estradiol] | do not improve penetration |  |
| TGF-α: water-soluble material tested for transport by association with nonionic vesicles |  | transported to a greater extent |
| C[C@]12CCC(=O)C=C1CC[C@@H]1[C@@H]2[C@@H](O)C[C@@]2(C)[C@H]1CC[C@]2(O)C(=O)CO [hydrocortisone] | do not improve penetration |  |

— US5834014A, “Stimulation of hair follicles” (priority 1995, dated 1998)
